Assay results published in article PMC12655172, “Borylated 5-Membered Ring Iminosugars: Synthesis and Biological Evaluation for Glycosidase Inhibition and Anticancer Properties for Application in Boron Neutron Capture Therapy (BNCT)—Part 2” (Pharmaceuticals, 2025).
Read-outs that look alike come from different tables or passages of the source.

Assays:
A431 (skin carcinoma) = experiment: Cancer screening, MTT growth inhibition; type: cell-based; settings: for inhibition at 25 µM: A-431, 25 µM of drug, read-out: DOSE SCREEN percentage (%) cell growth inhibition A431 Skin; for GI50: read-out: DOSE RESPONSE GI50 A431 Skin; for DOSE SCREEN percentage (%) cell growth inhibition A431 Skin: 25 µM of drug
Description: (§1) For Table 4, all test agents were prepared as stock solutions ([…]) in dimethyl sulfoxide (DMSO) and stored at −20 °C. Cell lines used in the study included HT29 (colorectal carcinoma), A2780 (ovarian carcinoma), H460 (lung carcinoma), A431 (skin carcinoma), MiaPaCa-2 (pancreatic carcinoma), and SMA560 (spontaneous murine astrocytoma), together with MCF10A (non-tumour derived normal breast cell line). Cell line sources: the HT29, H460, and MiaPaCa-2, together with MCF10A were purchased from ATCC. The A2780 and A431 were purchased from the European Collection of Cell Culture (ECACC). All cell lines were incubated in a humidified atmosphere 5% CO2 at 37 °C. The cancer cell lines were maintained in Dulbecco’s modified Eagle’s medium (DMEM; Sigma, Truganina, Australia) supplemented with foetal bovine serum (10%), sodium pyruvate ([…]), penicillin (100 IUmL^−1), streptomycin (100 µg mL^−1), and L-glutamine ([…]).
(§2) Growth inhibition was determined by plating cells in duplicate in medium (100 µL) at a density of 2500–4000 cells per well in 96-well plates. On day 0 (24 h after plating), when the cells are in logarithmic growth, medium (100 µL) with or without the test agent was added to each well. […] Each data point is the mean ± the standard error of the mean (SEM) calculated from three replicates which were performed on separate occasions and separate cell line passages.

[1] = test system: A2780 (ovarian carcinoma); experiment: Cancer screening, MTT growth inhibition; type: cell-based; settings: for inhibition at 25 µM: A2780, 25 µM of drug, read-out: DOSE SCREEN percentage (%) cell growth inhibition A2780 Ovarian; for GI50: read-out: DOSE RESPONSE GI50 A2780 Ovarian; for DOSE SCREEN percentage (%) cell growth inhibition A2780 Ovarian: 25 µM of drug
Description: as §1, §2

[2] = test system: HT29 (colorectal carcinoma); experiment: Cancer screening, MTT growth inhibition; type: cell-based; settings: for inhibition at 25 µM: HT-29, 25 µM of drug, read-out: DOSE SCREEN percentage (%) cell growth inhibition HT29 Colon; for GI50: read-out: DOSE RESPONSE GI50 HT29 Colon; for DOSE SCREEN percentage (%) cell growth inhibition HT29 Colon: 25 µM of drug
Description: as §1, §2

[3] = test system: MIA-Pa-Ca2 (pancreatic carcinoma); experiment: Cancer screening, MTT growth inhibition; type: cell-based; settings: for inhibition at 25 µM: MIA PaCa-2, 25 µM of drug, read-out: DOSE SCREEN percentage (%) cell growth inhibition MIA-Pa-Ca2 Pancreatic; for GI50: read-out: DOSE RESPONSE GI50 MIA-Pa-Ca2 Pancreatic; for DOSE SCREEN percentage (%) cell growth inhibition MIA-Pa-Ca2 Pancreatic: 25 µM of drug
Description: as §1, §2

H460 (lung carcinoma) = experiment: Cancer screening, MTT growth inhibition; type: cell-based; settings: for inhibition at 25 µM: NCI-H460, 25 µM of drug, read-out: DOSE SCREEN percentage (%) cell growth inhibition H460 Lung; for GI50: read-out: DOSE RESPONSE GI50 H460 Lung; for DOSE SCREEN percentage (%) cell growth inhibition H460 Lung: 25 µM of drug
Description: as §1, §2

[4] = Sample appearance on sample preparation in water; type: physicochemical; settings: 1 mL of water was added to 1 mg solid
β-D-glucosidase (almond) = experiment: Glycosidase inhibition (Table 3 panel); type: biochemical; settings: 1 mg/mL aqueous solution; run in water
Description: (§3) All enzymes and para-nitrophenyl substrates were purchased from Sigma. Enzymes were assayed at 27 °C in citric acid (0.1 M)/disodium hydrogen phosphate (0.2 M) buffers at the optimum pH for the enzyme. The incubation mixture consisted of […] of 1 mg/mL aqueous solution of extract and […] of the appropriate […] para-nitrophenyl substrate made up in buffer at the optimum pH for the enzyme. The reactions were stopped by addition of […] 0.4 M glycine (pH 10.4) during the exponential phase of the reaction, which had been determined at the beginning using uninhibited assays in which water replaced the inhibitor. Final absorbances were read at 405 nm using a Versamax microplate reader (Molecular Devices, Wokingham, UK). Assays were carried out in triplicate, and the values given are means of the three replicates per assay. All reactions were run in water.

[5] = test system: β-D-glucuronidase (bovine liver); experiment: Glycosidase inhibition (Table 3 panel); type: biochemical; settings: 1 mg/mL aqueous solution; run in water
Description: as §3

α-D-glucosidase (yeast) [6] = molecular target: T1, α-D-glucosidase (yeast) (Saccharomyces cerevisiae, UniProt P53341); experiment: Glycosidase inhibition (Table 2 panel); type: biochemical; settings: for inhibition at 100 µM / inhibition at 1000 µM: read-out: inhibition % α-D-Glucosidase Yeast
T1 construct: purchased Sigma-Aldrich
T1 sequence (P53341 whole entry): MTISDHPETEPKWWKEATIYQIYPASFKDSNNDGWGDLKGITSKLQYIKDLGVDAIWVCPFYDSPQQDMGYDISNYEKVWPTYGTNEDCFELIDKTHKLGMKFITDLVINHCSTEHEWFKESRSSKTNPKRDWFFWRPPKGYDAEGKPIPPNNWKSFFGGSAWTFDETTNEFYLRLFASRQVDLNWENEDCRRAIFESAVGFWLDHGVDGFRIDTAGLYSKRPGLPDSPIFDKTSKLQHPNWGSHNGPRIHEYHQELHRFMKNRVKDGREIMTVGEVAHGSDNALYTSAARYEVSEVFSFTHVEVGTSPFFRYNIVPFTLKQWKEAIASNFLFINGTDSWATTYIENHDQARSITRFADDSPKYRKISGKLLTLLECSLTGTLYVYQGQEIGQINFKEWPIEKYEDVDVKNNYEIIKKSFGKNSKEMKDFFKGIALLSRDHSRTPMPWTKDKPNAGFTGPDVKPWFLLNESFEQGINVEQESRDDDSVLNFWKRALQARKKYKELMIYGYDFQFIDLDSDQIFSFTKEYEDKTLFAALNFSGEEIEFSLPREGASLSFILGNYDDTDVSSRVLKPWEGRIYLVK
From the text: (§4) The enzymes α-D-glucosidase (yeast), β-D-glucosidases (almond, bovine liver), α-D-galactosidase (coffee beans), β-D-galactosidase (bovine liver), α-D-mannosidase (Jack bean), β-D-mannosidase (snail), α-L-rhamnosidase (P. decumbens), α-L-fucosidase (bovine kidney), trehalase (porcine kidney), β-D-glucuronidases (E. coli, bovine liver), amyloglucosidase (A. niger), para-nitrophenyl glycosides, and various disaccharides were purchased from Sigma-Aldrich Co (St. Louis, MO, USA).
(§5) Brush border membranes were prepared from the rat small intestine according to the method of Kessler et al., and were assayed at pH 6.8 for rat intestinal maltase using maltose. […] The reaction was stopped by heating at 100 °C for 3 min. After centrifugation (600 g; 10 min), the resulting reaction mixture was added to the Glucose CII-test Wako (Wako Pure Chemical Ind., Osaka, Japan). […] Other glycosidase activities were determined using an appropriate para-nitrophenyl glycoside as substrate at the optimum pH of each enzyme. The reaction mixture contained the substrate ([…]) and the appropriate amount of enzyme. The reaction was stopped by the addition of Na2CO3 (400 μM). The released para-nitrophenol was measured spectrometrically at 400 nm. All reactions were run in methanol.

[7] = test system: T2, amyloglucosidase (A. niger); experiment: Glycosidase inhibition (Table 2 panel); type: biochemical
T2 construct: purchased Sigma-Aldrich
From the text: as §4, §5

[8] = test system: T3, β-D-glucuronidase (E. coli); experiment: Glycosidase inhibition (Table 2 panel); type: biochemical
T3 construct: purchased Sigma-Aldrich
From the text: as §4, §5

α-D-glucosidase (yeast) [9] = molecular target: T1, α-D-glucosidase (yeast); experiment: Glycosidase inhibition (Table 3 panel); type: biochemical; settings: 1 mg/mL aqueous solution, run in water; for inhibition at 1000 µg/mL (stock): read-out: Percentage inhibition α-D-Glucosidase Yeast
Description: All enzymes and para-nitrophenyl substrates were purchased from Sigma. Enzymes were assayed at 27 °C in citric acid (0.1 M)/disodium hydrogen phosphate (0.2 M) buffers at the optimum pH for the enzyme. The incubation mixture consisted of […] of 1 mg/mL aqueous solution of extract and […] of the appropriate 5 μM para-nitrophenyl substrate made up in buffer at the optimum pH for the enzyme. […] Assays were carried out in triplicate, and the values given are means of the three replicates per assay. All reactions were run in water.

Row | Compound | inhibition at 25 µM (A431 (skin carcinoma); Homo sapiens, 72 h) | GI50 (A431 (skin carcinoma); Homo sapiens, A-431, 72 h) | inhibition at 25 µM ([1]; Homo sapiens, 72 h) | GI50 ([1]; Homo sapiens, A2780, 72 h) | inhibition at 25 µM ([2]; Homo sapiens, 72 h) | GI50 ([2]; Homo sapiens, HT-29, 72 h) | inhibition at 25 µM ([3]; Homo sapiens, 72 h) | GI50 ([3]; Homo sapiens, MIA PaCa-2, 72 h) | inhibition at 25 µM (H460 (lung carcinoma); Homo sapiens, 72 h) | GI50 (H460 (lung carcinoma); Homo sapiens, NCI-H460, 72 h) | Sample Appearance [4] | Percentage inhibition β-D-Glucosidase Almond (β-D-glucosidase (almond)) | Percentage inhibition β-D-Glucuronidase Bovine Liver [5] | inhibition at 100 µM (α-D-glucosidase (yeast) [6]) | inhibition % Amyloglucosidase A. niger ([7]; at 100 μM) | inhibition % Amyloglucosidase A. niger ([7]; at 1000 μM) | inhibition % β-D-Glucuronidase E. coli ([8]; at 100 μM) | inhibition % β-D-Glucuronidase E. coli ([8]; at 1000 μM) | inhibition at 1000 µg/mL (stock) (α-D-glucosidase (yeast) [9]) | Percentage inhibition α-D-Glucosidase Yeast (α-D-glucosidase (yeast) [9]) | other results
1 | CC1(C)O[C@H]2O[C@H]3[C@@H]([C@H]2O1)N(Cc1ccccc1B1OC(C)(C)C(C)(C)O1)C[C@H]3O [ortho 2, N-(2-Methylphenylboronic acid pinacol ester)-3,6-dideoxy-3,6-imino-1,2-O-isopropylidene-α-D-gulofuranose] | 10 ± 5% | > 50 µM | 7 ± 2% | > 50 µM | 7% | > 50 µM | 9 ± 7% | > 50 µM | 11 ± 4% | > 50 µM | In solution | 73.3% | −1.8% | 1% | ^cNI ^d(0%) | ^aNI ^b(3.2%) | ^cNI ^d(4.1%) | ^aNI ^b(5.2%) | -2% | – | inhibition at 1000 µM (α-D-glucosidase (yeast) [6]): 0%
2 | OB(O)c1ccccc1CN1C[C@@H](O)[C@H]2OC(O)[C@H](O)[C@H]21 (stereo partly drawn) [ortho 3, N-(2-Methylphenylboronic acid)-3,6-dideoxy-3,6-imino-D-gulofuranose] | 3 ± 1% | > 50 µM | 17 ± 2% | > 50 µM | < 0% | > 50 µM | 5 ± 5% | > 50 µM | 2 ± 1% | > 50 µM | In solution | 68.6% | 1.3% | 2.9% | ^cNI ^d(0%) | ^aNI ^b(2.1%) | ^cNI ^d(0%) | ^aNI ^b(8.4%) | 4.1% | – | inhibition at 1000 µM (α-D-glucosidase (yeast) [6]): 1%
3 | OC[C@H](O)[C@@H]1[C@H](O)[C@H](O)CN1Cc1ccccc1B(O)O [ortho 4, N-(2-Methylphenylboronic acid)-1,4-dideoxy-1,4-imino-L-gulitol] | 17 ± 2% | > 50 µM | 16 ± 8% | > 50 µM | < 0% | > 50 µM | 7 ± 2% | > 50 µM | 8 ± 2% | > 50 µM | In solution | 49.8% | 2.2% | 0% | ^cNI ^d(0%) | ^aNI ^b(0%) | ^cNI ^d(0%) | ^aNI ^b(31.8%) | -6.7% | – | IC50 (α-D-glucosidase (yeast) [6]; listed as of the 1000 μM series): 784 µM
4 | CC1(C)O[C@H]2O[C@H]3[C@@H]([C@H]2O1)N(Cc1ccccc1B(O)O)C[C@H]3O [ortho 5] | 9 ± 4% | > 50 µM | 19 ± 2% | > 50 µM | 4 ± 4% | > 50 µM | 12 ± 3% | > 50 µM | 2 ± 2% | > 50 µM | In solution | 8.7% | 1.4% | 0% | ^cNI ^d(4.9%) | – | ^cNI ^d(1.2%) | – | 8.7% | 11% | –
5 | Borocaptate sodium [BSH, reference compound] | – | – | – | – | – | – | – | – | – | – | In solution | 47.3% | 31.6% | – | – | ^aNI ^b(0%) | – | ^aNI ^b(6%) | – | 59% | DOSE SCREEN percentage (%) cell growth inhibition A431 Skin (A431 (skin carcinoma); 72 h): * <0%; DOSE SCREEN percentage (%) cell growth inhibition A2780 Ovarian ([1]; 72 h): * 2 ± 5%; DOSE SCREEN percentage (%) cell growth inhibition HT29 Colon ([2]; 72 h): * 3 ± 2%; DOSE SCREEN percentage (%) cell growth inhibition MIA-Pa-Ca2 Pancreatic ([3]; 72 h): * 2 ± 6%; DOSE SCREEN percentage (%) cell growth inhibition H460 Lung (H460 (lung carcinoma); 72 h): * 8 ± 2%; inhibition % α-D-Glucosidase Yeast (α-D-glucosidase (yeast) [6]; at 1000 μM): ^aNI ^b(6.9%)
6 | N-(3-Hydroxyphenyl)-1,4-dideoxy-1,4-imino-L-gulitol [meta 7] | – | – | – | – | – | – | – | – | – | – | In solution | 2.9% | −3% | – | ^cNI ^d(5.1%) | ^aNI ^b(2.1%) | ^cNI ^d(0.5%) | ^aNI ^b(7.5%) | – | 19.5% | DOSE SCREEN percentage (%) cell growth inhibition A431 Skin (A431 (skin carcinoma); 72 h): 56 ± 6%; GI50 (A431 (skin carcinoma); 72 h): 17 ± 8.5 µM; DOSE SCREEN percentage (%) cell growth inhibition A2780 Ovarian ([1]; 72 h): 48 ± 7%; GI50 ([1]; 72 h): 30 ± 20 µM; DOSE SCREEN percentage (%) cell growth inhibition HT29 Colon ([2]; 72 h): 29 ± 1%; GI50 ([2]; 72 h): 50 µM; DOSE SCREEN percentage (%) cell growth inhibition MIA-Pa-Ca2 Pancreatic ([3]; 72 h): 39 ± 2%; GI50 ([3]; 72 h): 51 ± 1.5 µM; DOSE SCREEN percentage (%) cell growth inhibition H460 Lung (H460 (lung carcinoma); 72 h): 37 ± 3%; GI50 (H460 (lung carcinoma); 72 h): 47 ± 7 µM; inhibition % α-D-Glucosidase Yeast (α-D-glucosidase (yeast) [6]; at 100 μM): ^cNI ^d(3.4%); inhibition % α-D-Glucosidase Yeast (α-D-glucosidase (yeast) [6]; at 1000 μM): ^aNI ^b(4.3%)
